Results published in patent US20180064662A1 (THE GENERAL HOSPITAL CORPORATION, priority 2015, published 2018).
One block for each compound: values may come before it.

Key:
AK4.4 tumors = test: Orthotopic AK4.4 PDAC in lean and obese FVB mice (5-FU, losartan, TAN depletion); assay type: in vivo, mouse; settings: for response to chemotherapy: losartan with 5-FU
Text: (§1) Wild-type (WT) C57BL/6 and FVB male mice were originally obtained from Jackson Laboratory (The Jackson Laboratory, Bar Harbor, Me.) and bred and maintained in our defined-flora colony. KPC (Ptfl-Cre/LSL-KRAS^G12D/p53-R172H) and iKRAS (p48-Cre;R26-rtTa-IRES-EGFP;TetO-Kras^G12D mice) mice were obtained. To generate an obese model, mice (6-week old) were given either 10% or a 60% fat diet (D12450J and D12492, Research Diets, New Brunswick, N.J.) for 10 weeks (or until tumor collection in spontaneous models), as previously described (Surwit, R. S., et al. Metabolism: clinical and experimental 44, 645-651 (1995)). For implanted tumor experiments, AK4.4 cells (KrasG12D and p53 ? /−) were isolated from mice generating spontaneous pancreatic tumors (Ptf1-Cre/LSL-Kras^G12D/p53Lox/ ? ) (Bardeesy, N., et al. Proc Natl Acad SciUSA103, 5947-5952 (2006)). Orthotopic pancreatic tumors were generated by implanting a small piece (1 mm^3) of viable tumor tissue (from a source tumor in a separate animal) into the pancreas of a 6-8 week-old male lean or obese FVB (AK4.4 model) or C57BL/6 (PAN02 model) mouse. PAN02 tumor chunks and AK4.4 cells were authenticated by IDEXX laboratories. (PAN02: IDEXX RADIL Case # 22366-2013. AK4.4: IDEXX RADIL Case #27818-2014). For AT1- and AT2-knockout studies, tumors were implanted into the pancreas of a 6-8-week-old male lean or obese C57BL/ 6, agtr1 a−/− or agtr2−/− mice.
(§2) For all experiments unless specified below, mice bearing orthotropic PAN02 or AK4.4 pancreatic tumors were randomized into treatment groups (or no treatment) and tumors were collected at day 21 after implantation. For tumor growth study with chemotherapy, mice were divided into treatment groups 7 days after implantation, and treated with either 5-FU (30 mg/Kg i.v. every 4 days) or an equal volume of saline by intravenous injection on days 7, 11 and 15 after implantation, with tumors collected at day 19. For tumor growth study with losartan, mice were treated with losartan (90 mg/Kg i.p. every day) or an equal volume of PBS intraperitoneally starting on day 5 after implantation and for the duration of the study. In the combined experiment of losartan and 5-FU, the same protocol was used for each drug as described above. TAN depletion by a Ly6G specific inhibitor (BioExcell, 4 mg/Kg i.p. every 2 days) was administered to PAN02 bearing animals starting at day 1 or day 7, and to AK4.4 bearing animals at day 7. IL-1β inhibition (MM425B, Endogen/Pierce Biotechnology, 2 mg/Kg i.p. every 2 days) was administered to PAN02 bearing animals starting at day 7. At the completion of the study, adipose tissue and tumor samples were collected, weighed, and processed for further analysis. When spontaneous models were used, tumors were collected when palpable.
(§3) Angiotensin inhibitor losartan was obtained as pills, crushed and dissolved in PBS over 24 h. The solution was then sterile filtered for injection. Doxorubicin and 5-FU were obtained as solutions for injection. All drugs were purchased from the pharmacy at Massachusetts General
(§4) To assess obesity-induced ECM remodeling and fibrosis fibrillar collagen accumulation was quantified using second harmonic generation imaging, and collagen-I content, hyaluronan, MMPs levels and fibrosis related signaling pathways (e.g. AT-I, CTGF, TSP1, TGFβ1, and P38/ERK signaling) were measured by rtPCR array, immunohistochemistry and immunoblotting. The topographical distribution and density of cancer-associated fibroblasts (CAFs) in tumor sections was detected by staining for αSMA activated fibroblast marker. Vessel morphology and perfusion was assessed using standard histological analyses.

PAN02 tumors [1] = test: Orthotopic PAN02 PDAC in lean and obese C57BL/6 mice (5-FU, losartan, TAN depletion, IL-1β inhibition); assay type: in vivo, mouse; settings: for gene and protein expression of activated PSC marker αSMA: losartan 90 mg/Kg i.p. every day
Text: as §1, §2, §3, §4

PAN02 tumors [2] = test: Delivery of chemotherapy to tumors in lean and obese mice; settings: 5-FU 30 mg/kg, 30 min prior to tumor removal, HPLC
breast cancer = test: Breast cancer patients treated with bevacizumab in the neoadjuvant setting; assay type: in vivo, human; settings: normal weight patients
[3] = obese mice, losartan monotherapy
[4] = tumors from lean mice, losartan
[5] = tumors from obese but not lean mice, losartan
[6] = tumors from obese mice, losartan
[7] = lean mice, 3 doses of 5-FU 30 mg/kg BW q4d
[8] = obese conditions, 5-FU 30 mg/kg q4d

Compound: CCCCc1nc(Cl)c(CO)n1Cc1ccc(-c2ccccc2-c2nn[nH]n2)cc1 [losartan]
- desmoplasia-related markers and AT1 downstream signaling (AK4.4 tumors; lean animals, losartan): only modest
- gene and protein expression of activated PSC marker αSMA (AK4.4 tumors; lean animals, losartan): only mildly
- response to chemotherapy (AK4.4 tumors; lean setting): improved response to chemotherapy
- enrichment for GR(+)F480(-) cells within the CD45 population (AK4.4 tumors; losartan treatment): tended to decrease the enrichment
- enrichment for T regulatory cells within CD4 cells (AK4.4 tumors; losartan treatment): tended to decrease
- cytokine expression in tumors (multiplex protein) (AK4.4 tumors; obese mice, losartan): reduced the expression of multiple cytokines including IL-1β
- desmoplasia-related markers (AT1, TGF-β, SMAD2, vimentin, E-cadherin, snail, MMP9, decorin) and AT1 downstream signaling (AK4.4 tumors; obese mice, losartan): normalized the obesity-induced abnormal expression
- tumor weight (AK4.4 tumors; [3]): reduced tumor weight
- response to chemotherapy (AK4.4 tumors; obese setting): higher magnitude
- gene and protein expression of collagen-I and fibrillar collagen (AK4.4 tumors; [4]): not lean mice
- gene and protein expression of activated PSC marker αSMA (AK4.4 tumors; tumors from obese animals, losartan 90 mg/Kg i.p. every day): reduce gene and protein expression
- chemotherapy delivery (AK4.4 tumors; [5]): increase chemotherapy delivery
- tumor perfusion (AK4.4 tumors; [5]): tended to improve perfusion
- gene and protein expression of collagen-I and fibrillar collagen (AK4.4 tumors; [6]): decrease in gene and protein expression of collagen-I as well as fibrillar collagen
- gene and protein expression of activated PSC marker αSMA (PAN02 tumors [1]; lean animals): only mildly
- response to chemotherapy (PAN02 tumors [1]; obese animals, losartan with 5-FU): improved response to chemotherapy
- cytokine expression in tumors (multiplex protein) (PAN02 tumors [1]; obese mice, losartan): reduced the expression of multiple cytokines including IL-1β
- tumor weight (PAN02 tumors [1]; [3]): reduced tumor weight
- gene and protein expression of collagen-I and fibrillar collagen (PAN02 tumors [1]; [4]): not lean mice
- gene and protein expression of activated PSC marker αSMA (PAN02 tumors [1]; tumors from obese animals): reduce gene and protein expression
- chemotherapy delivery (PAN02 tumors [1]; [5]): increase chemotherapy delivery
- tumor perfusion (PAN02 tumors [1]; [5]): tended to improve perfusion
- gene and protein expression of collagen-I and fibrillar collagen (PAN02 tumors [1]; [6]): decrease in gene and protein expression of collagen-I as well as fibrillar collagen

- delivery of 5-FU to tumors in obese mice versus lean (PAN02 tumors [2]): decreased
Compound: O=c1[nH]cc(F)c(=O)[nH]1 [5-FU, 5-fluorouracil]
- reduction in tumor weight as compared to untreated controls (AK4.4 tumors; [7]): 50%
- tumor weight (AK4.4 tumors; [8]): did not significantly reduce tumor weight
- reduction in tumor weight as compared to untreated controls (PAN02 tumors [1]; [7]): 50%
- tumor weight (PAN02 tumors [1]; [8]): did not significantly reduce tumor weight

Compound: bevacizumab: antibody against VEGF
- tumor hypoxia (breast cancer): acutely increases tumor hypoxia
- tumor vessels (breast cancer): reduces tumor vessels
